Measurements taken from patent US20140155445A1, “Compounds and Methods for Treating Cancer and Diseases of the Central Nervous System” (Osta Biotechnologies Inc., priority 2007, published 2014).
Entries after “also recorded” stand apart in the source; their conditions may differ.

Key:
SKMEL-V+ cells = assay: Cell proliferation / survival, MTT assay, SKMEL-V+ cells; assay type: cell-based, human; details: 6.25 μM to 100 μM, 96 hours
Method: Exponentially growing SKMEL-V+ cells (1×10^3) were seeded in 96-well plates in complete medium. […] Cell survival was evaluated 96 hours later using the MTT metabolic assay (Benlimame N, He Q, Jie S, et al. FAK signaling is critical for ErbB-2/ErbB-3 receptor cooperation for oncogenic transformation and invasion. J Cell Biol 2005; 171: 505-16).

[1] = test system: hHO-1 transfected primary rat astroglial cultures; assay: Protein carbonyl ELISA in hHO-1-transfected primary rat astroglia (whole-cell and mitochondrial compartments); assay type: cell-based
Method: Cells were grown in Ham's F12 and high glucose DMEM (50:50 v/v) supplemented with 10 mM HEPES, 5% heat-inactivated horse serum, 5% heat-inactivated fetal bovine serum, and penicillin-streptomycin (50 U/mL and 50 μg/mL, respectively).
Upon reaching >90% confluence, 1×10^6 cells were transiently transfected with 4.0 μg of plasmid DNA-Lipofectamine 2000 complex using Lipofectamine 2000 method according to manufacturer instructions (Invitrogen). […] 12 μg of plasmid DNA and 16 μl of Lipofectamine 2000 reagent were diluted in 1.5 mL opti-MEM I reduced serum medium and incubated for 5 minutes at room temperature with gentle mixing. The two solutions were combined, incubated at room temperature for 20 minutes to promote formation of DNA-lipid complexes and administered to the cells. 2 mL opti-MEM I reduced serum medium was added to the flasks to ensure coverage of the monolayer by the transfection mixture. Following incubation for 6 hours at 37° C., the transfection mixture was replaced with 10 mL of complete media without antibiotics.
The cells were sonicated (Sonics & Materials, Danbury, Conn.) at a power level of 50 for 3×20 s in a cooled water bath. […] Whole-cell and mitochondrial preparations were assayed for protein carbonyls as described below.
Protein carbonyls were reacted with 2,4-dinitrophenylhydrazine (DNP) and the hydrazone adducts were detected with anti-DNP antisera. Quantification was achieved by comparison with oxidized BSA standards. Oxidized (carbonylated) BSA was prepared by reacting natural BSA (at 50 mg/mL in PBS) with hypochlorous acid (5 mM) for 1 h at 37° C., followed by overnight dialysis against PBS at 4° C. […] The pellet was resuspended in 2 mL of same buffer, sonicated on ice 2×15 s at 20 W and centrifuged for 20 min at 4° C. at 1,303×g. Protein concentration of supernatant was measured with the RC DC protein assay based on the Lowry protocol (Bio-Rad Laboratories, Hercules, Calif.). All samples were adjusted to 4.0 mg protein/mL. […] Five microliters aliquots of each reaction mixture were mixed with 1 mL PBS and 200 μL replicates were added per well to 96-well immunoplates and incubated overnight at 4° C. After washing with PBS, nonspecific binding sites were blocked with 0.1% Tween 20 in PBS. […] A 6-point standard curve of reduced and oxidized BSA was generated for each plate analyzed. Specific absorbance for each sample was calculated by subtracting basal absorbance of the DNP reagent from the total absorbance.

HO-2 (rat brain) = biological target: T1, HO-2 (rat brain) (Rattus norvegicus, UniProt P23711); assay: HO enzymatic activity in rat brain microsomal fraction (CO formed from methemalbumin, gas chromatography); assay type: biochemical; details: rat brain microsomes; average ± standard deviation of replicate experiments; hydrochloride; read-out: IC50 HO-2 (rat brain)/μM
T1 construct: brain microsomes were used as a source of HO-2; from tissue; host or cells: brain microsomal fraction of adult male Sprague-Dawley rats
T1 sequence (P23711 1-315): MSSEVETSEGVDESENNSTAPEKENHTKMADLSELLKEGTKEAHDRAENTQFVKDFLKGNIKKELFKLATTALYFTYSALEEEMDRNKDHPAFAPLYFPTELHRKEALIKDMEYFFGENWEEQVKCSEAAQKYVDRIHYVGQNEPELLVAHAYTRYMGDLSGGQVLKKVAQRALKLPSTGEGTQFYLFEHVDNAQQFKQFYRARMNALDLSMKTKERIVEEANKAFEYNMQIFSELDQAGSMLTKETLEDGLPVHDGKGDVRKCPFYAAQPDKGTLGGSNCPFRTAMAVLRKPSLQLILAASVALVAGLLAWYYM

Structure (SMILES): Brc1ccc(CCCCn2ccnc2)cc1.Cl [QC-199, 1-[4-(4-bromophenyl)butyl]-1H-imidazole hydrochloride]
- % cell survival (SKMEL-V+ cells): Dose dependent decrease in cell survival

Structure (SMILES): Brc1ccc(CCC2(Cn3ccnc3)OCCO2)cc1.Cl [QC-56, 1-((2-(2-(4-Bromophenyl)ethyl)-1,3-dioxolan-2-yl)methyl)-1H-imidazole hydrochloride]
- % cell survival (SKMEL-V+ cells): Dose dependent decrease in cell survival
- oxidative protein damage (protein carbonyls) accruing from hHO-1 transfection ([1]; 6.5 μM): significantly attenuated
- dose dependence of attenuation of oxidative protein damage ([1]; transiently transfected rat astroglia, hydrochloride): significant dose dependant attenuations; also recorded: in a dose dependent manner significantly decreased; also recorded: significant dose-dependant attenuations
- IC50 (HO-2 (rat brain)): ≥ 100 µM
